“Also recorded” adds a separate entry of the source. Like-named read-outs stand apart in the source and are kept apart here.
How the values were obtained:
[1] = humans, oral intake of a 80-120 mg dose of ginkgo biloba leaf extract; cited from earlier work
rats [2] = details: cited from earlier work
rats [3] = details: dose selective for α5-containing GABAA receptors; cited from earlier work
Ts65Dn mice [4] = test: Two-object based object recognition task; format: in vivo, mouse; details: for Persistence of cognitive improvement after drug treatment, summary statement: after cessation of chronic treatment; for Object recognition memory, summary statement: chronic administration
From the text: The object recognition task, a behavioral assay not requiring explicit rule learning or prolonged training, is based on the innate tendency of mice to differentially explore novel objects over familiar ones. Animals are submitted to daily handling sessions and are given an opportunity to habituate to a black acrylic, boxed enclosure, where they are exposed to two different objects during a 15-min training session. […] All are generally consistent in height and volume, and are symmetrical on a horizontal plane. They are set in two corners of the apparatus, positioned across from one another along its diameter. Subsequently, a 15-min. testing session is conducted 24 h after training. Here, the mice are presented with the object they had explored the previous day, and a new item (the objects being alternatively positioned in one corner or another in a balanced fashion).
Memory is operationally defined as the proportion of time animals spend investigating the novel object minus the proportion spent investigating the familiar one (Discrimination Index, DI=[Novel Object Exploration Time/Total Exploration Time−Familiar Object Exploration Time/Total Exploration Time]×100), where exploration constitutes any investigative behavior (i.e., head orientation, sniffing) or deliberate contact (i.e. rearing, licking) that occurs with each object. Behavioral trials are recorded by a tripod-mounted digital camera. Importantly, the object recognition task can be used repeatedly to evaluate rodent memory across time, and across various drug treatment regiments. Mice are trained and tested once per week, each experimental session separated by a 1-week interval, and are serially presented with new sets of objects. In this scheme, each mouse is considered a naïve subject, and each week's performance is considered an independent observation. Finally, all behavioral data are analyzed by Student's unpaired t tests.
Moreover, learning performance in the test is not confounded by task aversiveness, a variable common in avoidance paradigms, in food-motivated tasks, and in the Morris water maze (MWM). […] Thus, object recognition is an appropriate rodent cognitive task to assess Ts65Dn learning and memory deficits, and the mitigation of these deficits with pharmacological treatment.
The present experiment was carried out in a longitudinal, cross-over fashion, submitting four cohorts of WT and Ts65Dn experiment al pairs to a 4-week testing schedule. […] Note that untreated WT and Ts65Dn pairs had been previously run in order to validate the 2-object recognition test. […] N values reflect the number of observations (repetitions) per treatment. DI values are expressed as mean±SEM.
The animals were randomly assigned to groups receiving daily servings of chocolate milk or Metrazol (3 mg/kg), and were submitted to two repetitions of object recognition testing. For the purposes of drug delivery, all mice were conditioned to drinking chocolate milk in their home cages and then in cylindrical feeding tubes for 4 days. Subsequent to this conditioning, they were placed daily into the feeding tubes, and presented with small eppendorf caps of milk or a milk-Metrazol cocktail. The milk solutions were typically consumed within 10 min, after which the mice were returned to their home cages. In the current experiment, two cohorts of WT and Ts65Dn mice were submitted to a twoweek testing schedule. […] N values reflect the number of observations (repetitions) per treatment. DI values are expressed as mean±SEM.

Ts65Dn mice [5] = test: Spontaneous holeboard task; format: in vivo, mouse
From the text: One cohort of WT and Ts65Dn mice, used to determine the effects of chronic Metrazol on Ts65Dn object recognition performance, were submitted to a spontaneous holeboard task approximately 1 month after the end of Metrazol treatment and object recognition testing. Here, milk- and drug-treated animals (now 5.0 months of age) were habituated to Med Associates open field activity monitors (27.9 cm×27.9 cm) (FIGS. 7b and 7c), and then evaluated for holeboard exploration during a 7-min session. Please note that 2 rounds of holeboard testing were conducted during the light phase of the light/dark cycle, and were separated by a 1-week interval. […] N values reflect the number of observations (repetitions) per treatment. Values are expressed as mean±SEM.

Ts65Dn mice [6] = test: Hippocampal LTP after chronic drug administration; format: in vivo, mouse; details: after chronic once a day administration
From the text: It is shown that chronic (but not acute) once a day drug administration in Ts65Dn mice was able to normalize cognitive performance in the novel object recognition and spontaneous alteration tasks, and to rescue hippocampal LTP (see also Fernandez et al. (2007) Nat. Neurosci. 10, 411-413, herein specifically incorporated by reference).

rats and mice = details: acute post-training, peripheral injection or oral intake; cited from earlier work
rats [7] = details: chronic subcutaneous, approximately 10.0 mg/kg, ~9 months; cited from earlier work
[8] = cited from earlier work
[9] = cited from earlier work; remark: listed apart in the source
[10] = system: hippocampal population spikes; details: cited from earlier work
[11] = barbital-induced narcosis; cited from earlier work
[12] = system: children with Down Syndrome; details: children with Down Syndrome (Cocchi 1985); cited from earlier work
Ts65Dn mice [13] = test: Accelerating rotorod test (motor learning); format: in vivo, mouse; details: chronic PTX treatment (FIG. 12)
Ts65Dn hippocampal LTP = details: application of picrotoxin in vitro (Kleschevnikov 2004); cited from earlier work

## CC1C(=O)OC2C(O)C34C5CC(C(C)(C)C)C36C(OC(=O)C6O)OC4(C(=O)O5)C12O (stereo not drawn) [Ginkgolide B, ginkgolide B]
[1]
  Bioavailability: at least 80%
  Half-life: 6 h

## CCOC(=O)c1ncn2c1[C@@H]1CCCN1C(=O)c1cc(OC)ccc1-2 [L-655,708]
Rats [2]
  Cognition: enhance cognition in rats
Rats [3]
  Pro-convulsant effect: not pro-convulsant

## C1CCc2nnnn2CC1 [Metrazol, pentamethylenetetrazol]
Ts65Dn mice [4]; Ts65Dn mice
  Persistence of cognitive improvement after drug treatment, summary statement: found to have longevity in its effects for weeks after treatment
  Object recognition memory, summary statement: restore Ts65Dn object recognition performance
Ts65Dn mice [4]; Ts65Dn mice, listed as PTZ
  Persistence of cognitive improvement after drug treatment, summary statement: persistent, post-drug recovery of Ts65Dn cognition
Ts65Dn mice [4]; Ts65Dn mice, daily oral Metrazol 3 mg/kg in milk, compared with Ts65Dn mice given milk alone (p<0.03)
  Discrimination Index (DI), object recognition memory: significantly higher than Ts65Dn mice administered milk alone
Ts65Dn mice [4]; Ts65Dn mice, daily oral Metrazol 3 mg/kg in milk, two weeks, compared with WT mice given milk (p<0.16) or Metrazol (p<0.47)
  Discrimination Index (DI), object recognition memory: DI scores on par with those of WT mice given milk
Ts65Dn mice [5]; Ts65Dn mice about 1 month after end of Metrazol treatment, compared with WT-milk (p>0.07) and WT-Metrazol (p<0.31)
  Holeboard exploration efficiency (head-dips into previously explored holes): showed similar exploration efficiency
Ts65Dn mice [5]; Ts65Dn mice after GABA antagonist treatment with Metrazol
  Holeboard exploration efficiency, summary statement: rescued and persevere in Ts65Dn mice
Ts65Dn mice [6]
  Post-drug recovery of hippocampal LTP: post-drug recovery of Ts65Dn cognition and LTP lasting for several months
Rats and mice
  Learning and memory: facilitate normal learning and memory in rats and mice
Rats [7]
  Reversal learning in a shock-motivated, spatial maze task: elevates reversal learning
  Signs of neuronal aging in the hippocampus: curtails signs of neuronal aging in the hippocampus
[8]; after intraperitoneal injection, cerebellum, midbrain, cortex
  Distribution between brain regions: allocated evenly between the 3 major brain divisions
[8]; after oral intake or systemic injection
  Time to maximum physiological levels: 5-10 min
[8]; in vivo
  Blood-brain barrier passage: readily crosses the blood-brain barrier
  Half-life: 1 to 2 h
  Volume of distribution: approximates the volume of total body water
[9]; humans, dose range of less than about 100-400 mg/day
  Adverse or toxic effects: little to no adverse or toxic effects
[9]; patients on Metrazol
  Electrocardiographic tracings: no abnormalities in their electrocardiographic tracings
  Temperature curves, respiration, blood sugar, icteric index, pulse rate: no changes in temperature curves, respiration, blood sugar, icteric index or pulse rate

## CC(C)(C)[C@]1(O)C[C@@H]2OC(=O)C[C@@]23C(=O)O[C@@H]2OC(=O)[C@H](O)[C@]213 [bilobalide, Bilobalide]
Ts65Dn mice [4]; Ts65Dn mice, 30 daily i.p. injections through the 4-week testing schedule
  Discrimination Index (DI), object recognition memory: resembled Ts65Dn mice receiving PTX
Ts65Dn mice [4]; Ts65Dn mice
  Object recognition memory, summary statement: restore Ts65Dn object recognition performance
[10]
  Paired pulse inhibition: decrease paired pulse inhibition
[10]; muscimol-dependent manner
  Amplitude of hippocampal population spikes: significantly increase the amplitude of hippocampal population spikes
[11]
  Sleeping time: shorten sleeping time
[1]
  Bioavailability: 70%
  Half-life: 3 h

## CN1C(=O)CN=C(c2ccccc2)c2cc(Cl)ccc21 [diazepam]
[12]
  Depression: reducing depression

## Picrotoxin [PTX]
Ts65Dn mice [4]; PTX-treated Ts65Dn mice after cessation of chronic treatment
  Time normal object recognition memory is maintained post-treatment: at least 2 weeks
Ts65Dn mice [4]; Ts65Dn mice, acute PTX (FIG. 11)
  Object recognition performance: Unable to Reliably Rescue Ts65Dn Performance
Ts65Dn mice [4]; Ts65Dn mice
  Persistence of cognitive improvement after drug treatment, summary statement: maintained post drug treatment
  Object recognition memory, summary statement: able to recover Ts65Dn declarative memory
Ts65Dn mice [4]; Ts65Dn mice, listed as Picrotoxin
  Object recognition memory, summary statement: normalizes object recognition memory in Ts65Dn mice
Ts65Dn mice [4]; Ts65Dn mice, listed as picrotoxin
  Object recognition memory, summary statement: normalizes learning of Ts65Dn mice in an object recognition task
Ts65Dn mice [13]
  Rotorod performance / motor learning: does not influence Ts65Dn motor learning; also recorded: does not influence Ts65Dn Rotorod Performance
Ts65Dn hippocampal LTP
  Deficits in Ts65Dn hippocampal LTP: shown to reverse
